The values that follow come from US12581252B2, “Substituted pyrrolo[3,4-b]pyridines as PI3K-α inhibitors” (Relay Therapeutics, Inc., priority 2020, dated 2026).

H1047R PIK3CA enzyme, sequence (P42336 whole entry H1047R): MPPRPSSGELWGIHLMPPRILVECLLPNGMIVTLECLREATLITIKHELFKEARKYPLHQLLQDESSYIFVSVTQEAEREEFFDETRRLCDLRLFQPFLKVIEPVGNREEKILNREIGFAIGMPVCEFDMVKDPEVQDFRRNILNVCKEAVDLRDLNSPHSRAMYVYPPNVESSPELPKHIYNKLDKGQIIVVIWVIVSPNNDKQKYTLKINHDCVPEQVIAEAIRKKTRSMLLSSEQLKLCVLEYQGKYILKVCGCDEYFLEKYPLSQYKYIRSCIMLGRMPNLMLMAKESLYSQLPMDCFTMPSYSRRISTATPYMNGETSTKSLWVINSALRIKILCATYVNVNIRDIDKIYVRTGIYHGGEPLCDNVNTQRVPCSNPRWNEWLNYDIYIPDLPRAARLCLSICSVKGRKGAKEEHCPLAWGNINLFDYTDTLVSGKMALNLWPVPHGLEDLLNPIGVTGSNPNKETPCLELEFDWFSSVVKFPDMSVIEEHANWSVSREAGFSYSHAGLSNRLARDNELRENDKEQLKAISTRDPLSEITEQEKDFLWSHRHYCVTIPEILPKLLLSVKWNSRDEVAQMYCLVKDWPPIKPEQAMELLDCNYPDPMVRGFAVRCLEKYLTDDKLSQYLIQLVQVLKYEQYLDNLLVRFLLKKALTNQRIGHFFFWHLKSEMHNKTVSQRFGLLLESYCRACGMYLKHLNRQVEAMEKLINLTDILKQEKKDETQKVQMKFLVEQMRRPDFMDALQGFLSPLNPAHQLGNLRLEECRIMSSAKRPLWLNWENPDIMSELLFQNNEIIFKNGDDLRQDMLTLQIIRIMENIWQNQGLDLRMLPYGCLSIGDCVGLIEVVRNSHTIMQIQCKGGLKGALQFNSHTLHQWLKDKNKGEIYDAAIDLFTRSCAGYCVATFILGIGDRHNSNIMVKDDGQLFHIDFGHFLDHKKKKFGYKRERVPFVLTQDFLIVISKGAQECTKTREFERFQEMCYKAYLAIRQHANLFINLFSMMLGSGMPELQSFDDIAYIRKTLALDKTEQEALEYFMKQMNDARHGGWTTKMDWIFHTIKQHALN
H1047R PIK3CA enzyme, sequence (P27986 whole entry partner): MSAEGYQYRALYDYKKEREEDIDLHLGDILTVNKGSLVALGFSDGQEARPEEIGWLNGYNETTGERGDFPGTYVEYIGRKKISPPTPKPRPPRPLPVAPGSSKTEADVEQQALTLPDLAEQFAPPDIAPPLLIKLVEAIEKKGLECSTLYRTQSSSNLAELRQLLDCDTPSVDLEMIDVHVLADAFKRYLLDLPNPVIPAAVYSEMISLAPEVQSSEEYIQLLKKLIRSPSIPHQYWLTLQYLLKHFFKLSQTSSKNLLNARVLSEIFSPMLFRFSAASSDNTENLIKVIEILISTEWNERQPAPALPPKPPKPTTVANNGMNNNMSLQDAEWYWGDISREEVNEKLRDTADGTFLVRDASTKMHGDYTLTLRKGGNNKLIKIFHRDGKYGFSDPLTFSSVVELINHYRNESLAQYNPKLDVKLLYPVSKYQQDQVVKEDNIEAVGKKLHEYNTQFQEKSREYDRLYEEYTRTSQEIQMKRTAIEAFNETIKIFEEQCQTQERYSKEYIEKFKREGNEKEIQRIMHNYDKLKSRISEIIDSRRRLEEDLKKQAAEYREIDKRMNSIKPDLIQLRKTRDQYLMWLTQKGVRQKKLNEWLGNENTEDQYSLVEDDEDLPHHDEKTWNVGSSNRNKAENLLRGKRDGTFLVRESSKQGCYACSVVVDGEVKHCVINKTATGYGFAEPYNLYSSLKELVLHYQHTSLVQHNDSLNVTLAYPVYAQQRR

This experiment addresses H1047R PIK3CA enzyme (Homo sapiens, UniProt P42336, H1047R). Kind of experiment: ADP-Glo Biochemical PIK3CA Kinase Assay. As for the experimental part: Compounds to be assayed were plated in 16 doses of 1:2 serial dilutions (20 nL volume each well) on a 1536-well plate, and the plate warmed to room temperature. […] To the well was added 1 μL of 200 μM ATP and 20 μM of diC8-PIP2 in Substrate Assay Buffer (50 mM HEPES pH7.4, 50 mM NaCl, 5 mM DTT and 0.03% CHAPS) to start the reaction, and the plate was shaken for 10 seconds, then spun briefly at 1500 rpm, and then incubated for 60 minutes at room temperature. The reaction was stopped by adding 2 μL of ADP-Glo reagent (Promega), and spinning briefly at 1500 rpm, and then incubating for 40 minutes. ADP-Glo Detection reagent (Promega) was added and the plate spun briefly at 1500 rpm, then incubated for 30 minutes.
The IC50 is the concentration at which inhibition is half-maximal. High values mean weaker potency, low ones greater potency. In the case of `Cn1cc(-c2cc(NC(=O)c3cc(F)cc(C(F)(F)F)c3)c3c(c2)C(=O)N[C@@H]3c2cc(F)ccc2Cl)ccc1=O` (single isomer, unassigned) [Compound I-701], the IC50 is 500 to 1000 nM. `Cn1cc(-c2cc(NC(=O)c3cc(F)cc(C(F)(F)F)c3)c3c(c2)C(=O)N[C@H]3c2cc(F)ccc2Cl)ccc1=O` (single isomer, unassigned) [Compound I-702] displayed an IC50 of no more than 100 nM. Take `N#Cc1cc(NC(=O)c2cc(F)cc(C(F)(F)F)c2)c2c(c1)C(=O)N[C@@H]2c1cc(F)ccc1Cl` (single isomer, unassigned) [Compound I-770]: the IC50 was no more than 100 nM. `N#Cc1cc(NC(=O)c2cc(F)cc(C(F)(F)F)c2)c2c(c1)C(=O)N[C@H]2c1cc(F)ccc1Cl` (single isomer, unassigned) [Compound I-771] registered an IC50 of no more than 100 nM.

In turn, `COC1CC(Nc2cc(NC(=O)c3cc(F)cc(C(F)(F)F)c3)c3c(c2)C(=O)NC3c2cc(F)ccc2Cl)C1` (single isomer, unassigned) [Compound I-781] showed an IC50 of no more than 100 nM. Consider `O=C1NC(c2cc(F)ccc2Cl)c2c(NC(=O)[C@@H](O)c3cc(F)cc(F)c3)cc(Br)cc21` (single isomer, unassigned) [Compound I-803], for which the IC50 was 10000 to 100000 nM. `O=C1NC(c2cc(F)ccc2Cl)c2c(NC(=O)[C@H](O)c3cc(F)cc(F)c3)cc(Br)cc21` (single isomer, unassigned) [Compound I-804] yielded an IC50 of 10000 to 100000 nM. As for `O=C(Nc1cc(-c2ccc3ncnn3c2)cc2c1[C@@H](c1cc(F)ccc1Cl)NC2=O)c1cc(F)cc(C(F)(F)F)c1` (single isomer, unassigned) [Compound I-943], the IC50 lay in the range of 500 to 1000 nM. Turning to `Cn1cc(Nc2cc(NC(=O)c3cc(F)cc(C(F)(F)F)c3)c3c(c2)C(=O)N[C@@H]3c2cc(F)ccc2Cl)cn1` (single isomer, unassigned) [Compound I-998], the 50% inhibitory concentration (IC50) was in the range of 500 to 1000 nM. `O=C(Nc1cc(-c2cnn(C3CC3)c2)cc2c1[C@@H](c1cc(F)ccc1Cl)NC2=O)c1cc(F)cc(C(F)(F)F)c1` (single isomer, unassigned) [Compound I-1021] showed an IC50 of 10000 to 100000 nM. `N#C[C@H]1C[C@H](c2cc(NC(=O)c3cc(F)cc(C(F)(F)F)c3)c3c(c2)C(=O)N[C@@H]3c2cc(F)ccc2Cl)C1` (single isomer, unassigned) [Compound I-1325] registered an IC50 of 100 to 500 nM. Take `N#C[C@H]1C[C@H](c2cc(NC(=O)c3cc(F)cc(C(F)(F)F)c3)c3c(c2)C(=O)N[C@H]3c2cc(F)ccc2Cl)C1` (single isomer, unassigned) [Compound I-1326]: the IC50 is no more than 100 nM. With `N#C[C@H]1C[C@@H](c2cc(NC(=O)c3cc(F)cc(C(F)(F)F)c3)c3c(c2)C(=O)N[C@@H]3c2cc(F)ccc2Cl)C1` (single isomer, unassigned) [Compound I-1327] the figure was no more than 100 nM. `N#C[C@H]1C[C@@H](c2cc(NC(=O)c3cc(F)cc(C(F)(F)F)c3)c3c(c2)C(=O)N[C@H]3c2cc(F)ccc2Cl)C1` (single isomer, unassigned) [Compound I-1328] gave an IC50 of 100 to 500 nM. Regarding `CS(=O)(=O)N1CCC[C@H]1COc1cc(NC(=O)c2cc(F)cc(C(F)(F)F)c2)c2c(c1)C(=O)NC2c1cc(F)ccc1Cl` (single isomer, unassigned) [Compound I-1375], the IC50 was no more than 100 nM. For the molecule `CS(=O)(=O)N1CCC[C@@H]1COc1cc(NC(=O)c2cc(F)cc(C(F)(F)F)c2)c2c(c1)C(=O)NC2c1cc(F)ccc1Cl` (single isomer, unassigned) [Compound I-1378], the IC50 was no more than 100 nM.

In turn, `N#CC[C@@H](O)c1cc(NC(=O)c2cc(F)cc(C(F)(F)F)c2)c2c(c1)C(=O)N[C@@H]2c1cc(F)ccc1Cl` (single isomer, unassigned) [Compound I-1391] came in with an IC50 of 1000 to 10000 nM. For `N#CC[C@H](O)c1cc(NC(=O)c2cc(F)cc(C(F)(F)F)c2)c2c(c1)C(=O)N[C@@H]2c1cc(F)ccc1Cl` (single isomer, unassigned) [Compound I-1392], the IC50 is 1000 to 10000 nM. Take `N#CC[C@@H](O)c1cc(NC(=O)c2cc(F)cc(C(F)(F)F)c2)c2c(c1)C(=O)N[C@H]2c1cc(F)ccc1Cl` (single isomer, unassigned) [Compound I-1393]: the IC50 is no more than 100 nM.

In the case of `N#CC[C@H](O)c1cc(NC(=O)c2cc(F)cc(C(F)(F)F)c2)c2c(c1)C(=O)N[C@H]2c1cc(F)ccc1Cl` (single isomer, unassigned) [Compound I-1394], the IC50 was no more than 100 nM. In turn, `C[C@@](O)(CC#N)c1cc(NC(=O)c2cc(F)cc(C(F)(F)F)c2)c2c(c1)C(=O)N[C@H]2c1cc(F)ccc1Cl` (single isomer, unassigned) [Compound I-1395] displayed an IC50 of no more than 100 nM.

With `C[C@](O)(CC#N)c1cc(NC(=O)c2cc(F)cc(C(F)(F)F)c2)c2c(c1)C(=O)N[C@@H]2c1cc(F)ccc1Cl` (single isomer, unassigned) [Compound I-1396], the IC50 lay within 1000 to 10000 nM.

On to `O=C(Nc1cc(-c2ccnn2C[C@H]2CCOC2)cc2c1C(c1cc(F)ccc1Cl)NC2=O)c1cc(F)cc(C(F)(F)F)c1` (single isomer, unassigned) [Compound I-1406], for which the IC50 is no more than 100 nM.

`O=C(Nc1cc(-c2ccnn2C[C@@H]2CCOC2)cc2c1C(c1cc(F)ccc1Cl)NC2=O)c1cc(F)cc(C(F)(F)F)c1` (single isomer, unassigned) [Compound I-1407] registered an IC50 of no more than 100 nM. In the case of `CC(=O)N1CCC[C@@H](Oc2cc(NC(=O)c3cc(F)cc(C(F)(F)F)c3)c3c(c2)C(=O)NC3c2cc(F)ccc2Cl)C1` (single isomer, unassigned) [Compound I-1431], the IC50 was no more than 100 nM. Molecule `CC(=O)N1CCC[C@H]1COc1cc(NC(=O)c2cc(F)cc(C(F)(F)F)c2)c2c(c1)C(=O)NC2c1cc(F)ccc1Cl` (single isomer, unassigned) [Compound I-1466] came in with an IC50 of no more than 100 nM. In turn, `CC(=O)N1CCC[C@@H]1COc1cc(NC(=O)c2cc(F)cc(C(F)(F)F)c2)c2c(c1)C(=O)NC2c1cc(F)ccc1Cl` (single isomer, unassigned) [Compound I-1467] gave an IC50 of no more than 100 nM. For `O=C(Nc1cc(OC[C@@H]2CCCN2)cc2c1C(c1cc(F)ccc1Cl)NC2=O)c1cc(F)cc(C(F)(F)F)c1` (single isomer, unassigned) [Compound I-1468] the value was 100 to 500 nM. With `C[C@]1(O)CN(C(=O)Nc2cc(Br)cc3c2C(c2cc(F)ccc2Cl)NC3=O)c2ccccc21` (single isomer, unassigned) [Compound I-1508] the figure was 1000 to 10000 nM; with `C[C@@]1(O)CN(C(=O)Nc2cc(Br)cc3c2C(c2cc(F)ccc2Cl)NC3=O)c2ccccc21` (single isomer, unassigned) [Compound I-1511], no more than 100 nM. The molecule `O=C1N[C@H](c2cc(F)ccc2Cl)c2c(NC(=O)N3C[C@H](O)c4ccccc43)cc(Br)cc21` (single isomer, unassigned) [Compound I-1513] came in with a half-inhibitory concentration (IC50) of 100 to 500 nM. As for `O=C(Nc1cc(OC[C@@H]2CCO2)cc2c1[C@H](c1cc(F)ccc1Cl)NC2=O)c1cc(F)cc(C(F)(F)F)c1` (single isomer, unassigned) [Compound I-1517], the IC50 is no more than 100 nM. On to `O=C(Nc1cc(OC[C@H]2CCO2)cc2c1[C@H](c1cc(F)ccc1Cl)NC2=O)c1cc(F)cc(C(F)(F)F)c1` (single isomer, unassigned) [Compound I-1518], for which the half-maximal inhibitory concentration (IC50) is no more than 100 nM. In the case of `O=C(Nc1cc(OC[C@@H]2CCO2)cc2c1[C@@H](c1cc(F)ccc1Cl)NC2=O)c1cc(F)cc(C(F)(F)F)c1` (single isomer, unassigned) [Compound I-1519], the IC50 lay within 10000 to 100000 nM.

Molecule `O=C(Nc1cc(OC[C@H]2CCO2)cc2c1[C@@H](c1cc(F)ccc1Cl)NC2=O)c1cc(F)cc(C(F)(F)F)c1` (single isomer, unassigned) [Compound I-1520] had an IC50 of 10000 to 100000 nM. For `CN1C[C@H](COc2cc(NC(=O)c3cc(F)cc(C(F)(F)F)c3)c3c(c2)C(=O)N[C@@H]3c2cc(F)ccc2Cl)CC1=O` (single isomer, unassigned) [Compound I-1521] the value was no more than 100 nM; for `CN1C[C@H](COc2cc(NC(=O)c3cc(F)cc(C(F)(F)F)c3)c3c(c2)C(=O)N[C@H]3c2cc(F)ccc2Cl)CC1=O` (single isomer, unassigned) [Compound I-1522], no more than 100 nM; for `CN1C[C@@H](COc2cc(NC(=O)c3cc(F)cc(C(F)(F)F)c3)c3c(c2)C(=O)N[C@@H]3c2cc(F)ccc2Cl)CC1=O` (single isomer, unassigned) [Compound I-1523], 1000 to 10000 nM.

`CN1C[C@@H](COc2cc(NC(=O)c3cc(F)cc(C(F)(F)F)c3)c3c(c2)C(=O)N[C@H]3c2cc(F)ccc2Cl)CC1=O` (single isomer, unassigned) [Compound I-1524] returned an IC50 of 10000 to 100000 nM. The molecule `CC(=O)N1CCC[C@H](Oc2cc(NC(=O)c3cc(F)cc(C(F)(F)F)c3)c3c(c2)C(=O)NC3c2cc(F)ccc2Cl)C1` (single isomer, unassigned) [Compound I-1525] yielded an IC50 of 100 to 500 nM. For `CC(=O)N1CC[C@H](Oc2cc(NC(=O)c3cc(F)cc(C(F)(F)F)c3)c3c(c2)C(=O)NC3c2cc(F)ccc2Cl)C1` (single isomer, unassigned) [Compound I-1541] the value was 100 to 500 nM; for `O=C(Nc1cc(-c2cnn(-c3ncccn3)c2)cc2c1C(c1cc(F)ccc1Cl)NC2=O)c1cc(F)cc(C(F)(F)F)c1` (single isomer, unassigned) [Compound I-1554], 1000 to 10000 nM. As to `O=C(Nc1cc(-c2cnn(-c3ncccn3)c2)cc2c1C(c1cc(F)ccc1Cl)NC2=O)c1cc(F)cc(C(F)(F)F)c1` (single isomer, unassigned) [Compound I-1555], the IC50 is no more than 100 nM.
